In US4466980A, “Thiaprostaglandin E1 derivatives, process for production thereof, and pharmaceutical use thereof” (Teijin Limited, priority 1980, dated 1984):
In brackets after ≈: the same amount, converted by molar mass. One block for each compound: values may come before it.

Experiments:
platelet aggregation [1] = assay: platelet aggregation inhibiting activity of prior 11-deoxy-7S-prostaglandins E1 (inventors' investigations); format: cell-based
[2] = tested on: blood pressure of DOCA hypertensive rats; assay: action on blood pressure of conscious DOCA hypertensive rats, oral; format: in vivo, male wistar rats
Description: (3) The compound (No. 138) of the invention was orally adminstered to DOCA hypertensive rats (induced by deoxycholticosteron acetate) in conscious, and its action on the blood pressure was examined.
Male wistar rats weighing about 160 g were rendered hypertensive. Specifically, one kidney was removed from the rats, and DOCA was subcutaneously administered to the rats in a dose of 10 mg/kg twice a week. While the rats were allowed to drink a 1% aqueous solution of sodium chloride, they were kept for more than 4 weeks to induce hypertension. The average blood pressure was measured in the same way as described in (2) above.

[3] = tested on: blood pressure of conscious rats; assay: action on blood pressure of conscious rats, oral; format: in vivo, male wister rats
Description: (2) The thiaprostaglandin E1 derivatives of the invention were orally administered to conscious rats, and their action on the blood pressure was examined.
Male wister rats weighing about 250 g were used as experimental animals. These rat had been fasted for 16 hours before the start of the experiment. A catheter was inserted into the femoral artery of the rats under ether anesthesia, and then the rats were restrained within a Bollman cage. After more than 1 hour from awakening, each of the test compounds was orally administered.
The test compound was dissolved in a small amount of ethanol, and then diluted with water to adjust the final concentration of ethanol to not more than 5%. The mean blood pressure was measured by means of a pressure transducer through the catheter inserted into the femoral artery.

[4] = tested on: blood pressure and heart beat rate of rats; assay: hypotensive activity and heart beat rate, intravenous injection in anesthetized rats; format: in vivo, male wister rats; settings: Rattus norvegicus, i.v.; for ED (10% increase of heart rate): read-out: H-ED10 (dosage causing a 10% increase of the heart rate); for ED (20% lowering of blood pressure): read-out: P-ED20 (dosage causing a 20% lowering of the mean blood pressure)
Description: (1) The actions of the thiaprostaglandin E1 derivatives of the invention on the blood pressure and heart beat rate of rats were examined by intravenous injection under anesthesia. Male wister rats weighing about 250 g were used. Urethane (500 mg/kg) and α-chloralose (100 mg/kg) were intraperitoneally administered to the rats. The rats were anesthetized and fixed in place. Each of the test compounds was dissolved in a small amount of ethanol and diluted with physiological saline to adjust the final ethanol concentration to not more than 5%. The solution was intravenously injected into the rats through a catheter inserted into the femoral vein. The blood pressure of the rats was measured by a pressure transducer through a catheter inserted into the carotid artery of the rats. The heart beat rate was determined from the blood pressure pulse. The action of the test compound of the blood pressure was expressed as the dosage (p-ED20, μg/kg) of the test compound which caused a 20% lowering of the mean blood pressure before administration of the compound. The action of the test compound on the heart rate was expressed as the dosage (H-ED10, μg/kg) of the test compound which caused a 10% increase of the heart rate from the heart beat rate before administration of the test compound.

platelet aggregation [5] = assay: extra vivo inhibitory activity of platelet aggregation after oral administration; format: in vivo, guinea pigs (Hartley strain); settings: Cavia porcellus; for inhibition at 3 mg/kg: 3 mg/kg p.o.; for inhibition at 10 mg/kg: 10 mg/kg p.o.
Description: The extra vivo platelet aggregation inhibitory activity of the 7-thiaprostaglandin E1 derivatives of the invention were measured by using guinea pigs. A test drug prepared as a 30% ethanol solution of each of the compounds of the invention in ethanol diluted with physiological saline and as a control 30% ethanol solution were orally adminstered in a dose of 1 ml/kg to Hartleystrain guinea pigs having a body weight of 350 to 450 g which had been fasted for 17 hours. 1 hour or 4 hours after the administration of the compound, blood was drawn off by the cardiac puncture using trisodium citrate so that the ratio of the blood to 3.8% trisodium citrate was 9:1. The blood was centrifuged at a speed of 700 rpm for 10 minutes. The upper layer was separated as plateletrich plasma (PRP). The lower layer was further centrifuged at a speed of 2800 rpm for 10 minutes. The upper layer was separated as platelet poor plasma (PPP). 250 microliters of the resulting PRP was taken into an aggregometer cuvette, and incubated at 37° C. for 2 minutes. Then, 25 microliters of a […] ADP disodium solution adjusted by dissolving with 0.1M tris-HCl buffer (ph 8.0) was added. The aggregation curve was recorded for 3 minutes. The maximum degree of aggregation of platelets within this time period was read, and the rate of inhibitor of platelet aggregation was calculated from the following equation. [formula] TC : the transmittance of a control group (to which only the 30% ethanol solution was administered),
TD : the transmittance of a drug administered group.

ethanol ulcer (stomach) = assay: ethanol ulcer test (anti-ulcer action); format: in vivo, SD-strain rats
Description: An ethanol ulcer test was carried out by the following processure.
SD-strain rats (body weight 200 to 220 g; 7 weeks old) were fasted for 24 hours, and a solution of each of the test compounds in physiological saline buffered with phosphate buffer at pH 7.5 was orally administered. Thirty minutes after the administration, 75% ethanol was orally administered in a dose of 1 ml/kg. One hour later, the abdomen was incised to isolate the stomach. […] The total of these lengths was defined as the ulcer index. A control group was given physiological saline buffered with phosphate buffer (pH 7.5) and 75% ethanol.

platelet aggregation [6] = assay: in vitro inhibitory activity of platelet aggregation (ADP); format: cell-based, rabbit (Japanese domestic white male); settings: Oryctolagus cuniculus, rabbit PRP, 10 μM ADP, 37° C., read-out: IC50 (minimum concentration which inhibited more than 50% of platelet aggregation)
Description: The in vitro platelet aggregation imhibiting activity of the compounds of the invention were examined by using rabbits. Blood was withdrawn from the ear vein of Japanese domestic white male rabbits weighing 2.5 to 3.5 kg. A mixture of a 3.8% trisodium citrate solution and the blood in a ratio of 1:9 was centrifuged at a speed of 1000 rpm for 10 minutes. The upper layer was separated as platelet-rich plasma (PRP). The lower layer was further centrifuged at a speed of 2800 rpm for 10 minutes. The upper layer was separated as platelet-poor plasma (PPP). The number of platelets was adjusted to 6×10^5 /μl to 7×10^5 /μl by diluting the PRP with PPP. 25 microliters of the test compounds prepared as shown below was added in an amount of 25 to 250 microliters of PRP after the adjustment, and the mixture was pre-incubated at 37° C. for 2 minutes, and then 10 μM (final) of ADP was added. By using an aggregometer, changes in transmission were recorded.
The drug was dissolved in ethanol to a concentration of 10 mg/ml, and successively diluted with phosphate buffer (pH 7.4) prior to use.
The rate of inhibition of platelet aggregation was determined from the following equation. [formula] To : the transmittance of the system containing the phosphate buffer, T: the transmittance of the sytem to which the test drug was added.
The minimum concentration of the drug which inhibited more than 50% of platelet aggregation was shown as an IC50 value.

[7] = Rattus norvegicus, po, 100 μg/kg p.o., read-out: Ulcer inhibiting rate (%)

Structure (SMILES): CCCC(C)C[C@H](O)/C=C/[C@H]1CCC(=O)[C@@H]1SCCCCCC(=O)OC (stereo partly shown)
platelet aggregation inhibiting activity (in words) (platelet aggregation [1]): very weak

Structure (SMILES): CCCCC[C@H](O)/C=C/[C@H]1CCC(=O)[C@@H]1SCCCCCC(=O)OC
platelet aggregation inhibiting activity (in words) (platelet aggregation [1]): very weak

Structure (SMILES): CCCCC[C@H](O)/C=C/[C@H]1CCC(=O)[C@@H]1SCCCCCC(=O)O [11-deoxy-7S-prostaglandin E1]
platelet aggregation inhibiting activity (in words) (platelet aggregation [1]): very weak

Structure (SMILES): CCCC(C)C[C@H](O)/C=C/[C@H]1CCC(=O)[C@@H]1SCCCCCC(=O)O (stereo partly drawn) [11-deoxy-17-methyl-7S-prostaglandin E1]
platelet aggregation inhibiting activity (in words) (platelet aggregation [1]): very weak

Structure (SMILES): COC(=O)CCCCCS[C@H]1C(=O)C[C@@H](O)[C@@H]1/C=C/[C@@H](O)C1CCCCC1 [Compound 138, 16,17,18,19,20-pentanor-15-cyclohexyl-7-thiaprostaglandin E1 methyl ester]
average blood pressure ([2]; 0.1 mg/kg p.o., 0 min): 167 ± 8
average blood pressure ([2]; 0.1 mg/kg p.o., 10 min): 149 ± 12
average blood pressure ([2]; 0.1 mg/kg p.o., 15 min): 156 ± 8
average blood pressure ([2]; 0.1 mg/kg p.o., 30 min): 165 ± 7
average blood pressure ([2]; 0.1 mg/kg p.o., 45 min): 168 ± 7
average blood pressure ([2]; 0.1 mg/kg p.o., 60 min): 171 ± 10
average blood pressure ([2]; 0.1 mg/kg p.o., 90 min): 177 ± 11
average blood pressure ([2]; 0.1 mg/kg p.o., 120 min): 182 ± 13
average blood pressure ([2]; 0.3 mg/kg p.o., 0 min): 165 ± 14
average blood pressure ([2]; 0.3 mg/kg p.o., 10 min): 134 ± 12
average blood pressure ([2]; 0.3 mg/kg p.o., 15 min): 141 ± 8
average blood pressure ([2]; 0.3 mg/kg p.o., 30 min): 151 ± 7
average blood pressure ([2]; 0.3 mg/kg p.o., 45 min): 161 ± 9
average blood pressure ([2]; 0.3 mg/kg p.o., 60 min): 169 ± 9
average blood pressure ([2]; 0.3 mg/kg p.o., 90 min): 170 ± 12
average blood pressure ([2]; 0.3 mg/kg p.o., 120 min): 180 ± 10
hypotensive action (in words) ([2]; p.o., hypertensive rats): marked hypotensive action
mean blood pressure ([3]; 1 mg/kg p.o., 0 min, in mmHg): 116 + 4
mean blood pressure ([3]; 1 mg/kg p.o., 10 min): 99 ± 6
mean blood pressure ([3]; 1 mg/kg p.o., 15 min): 114 ± 2
mean blood pressure ([3]; 1 mg/kg p.o., 30 min): 116 ± 4
mean blood pressure ([3]; 1 mg/kg p.o., 45 min): 119 ± 4
mean blood pressure ([3]; 1 mg/kg p.o., 60 min): 120 ± 4
mean blood pressure ([3]; 1 mg/kg p.o., 90 min): 118 ± 3
mean blood pressure ([3]; 1 mg/kg p.o., 120 min): 118 ± 3
mean blood pressure ([3]; 10 mg/kg p.o., 0 min): 118 ± 3
mean blood pressure ([3]; 10 mg/kg p.o., 10 min): 92 ± 9
mean blood pressure ([3]; 10 mg/kg p.o., 15 min): 95 ± 9
mean blood pressure ([3]; 10 mg/kg p.o., 30 min): 108 ± 6
mean blood pressure ([3]; 10 mg/kg p.o., 45 min): 111 ± 4
mean blood pressure ([3]; 10 mg/kg p.o., 60 min): 112 ± 3
mean blood pressure ([3]; 10 mg/kg p.o., 90 min): 114 ± 4
mean blood pressure ([3]; 10 mg/kg p.o., 120 min): 117 ± 4
hypotensive action (in words) ([3]; p.o., especially 10 mg/kg): long-lasting hypotensive action
ED (10% increase of heart rate) [4]: > 10 µg/kg
ED (20% lowering of blood pressure) [4]: 0.68 µg/kg
inhibition at 3 mg/kg (platelet aggregation [5]; 1 hr): 64.9%
inhibition at 3 mg/kg (platelet aggregation [5]; 4 hr): 23.3%
inhibition at 10 mg/kg (platelet aggregation [5]; 1 hr): 94.1%
inhibition at 10 mg/kg (platelet aggregation [5]; 4 hr): 50%

IC50 (platelet aggregation [6]): 2.8 µg/mL (≈ 7.28 µM)
Structure (SMILES): O=C(O)CCSCCC[C@H]1C(=O)C[C@@H](O)[C@@H]1/C=C/[C@@H](O)C1CCCCC1 [Compound 403, 16,17,18,19,20-pentanor-15-cyclohexyl-4-thiaprostaglandin E1]
Ulcer index (mm) (ethanol ulcer (stomach); 100 μg/kg p.o., ** P < 0.01): 6.0 ± 3.8 mm
inhibition at 0.1 mg/kg (ethanol ulcer (stomach); [7]): 91.2%
antiulcer action (in words) (ethanol ulcer (stomach); p.o., Table 6): nearly the same antiulcer action as prostaglandin E1

Structure (SMILES): CCCCC[C@H](O)/C=C/[C@H]1[C@H](O)CC(=O)[C@@H]1CCCCCCC(=O)O [PGE1, prostaglandin E1]
Ulcer index (mm) (ethanol ulcer (stomach); 30 μg/kg p.o.): 26.8 ± 12.5 mm
Ulcer index (mm) (ethanol ulcer (stomach); 100 μg/kg p.o., ** P < 0.01): 1.0 ± 1.0 mm
inhibition at 0.03 mg/kg (ethanol ulcer (stomach); Rattus norvegicus, po, 30 μg/kg p.o., read-out: Ulcer inhibiting rate (%)): 60.8%
inhibition at 0.1 mg/kg (ethanol ulcer (stomach); [7]): 98.5%
ED (10% increase of heart rate) [4]: > 10 µg/kg
ED (20% lowering of blood pressure) [4]: 1.21 µg/kg
inhibition at 3 mg/kg (platelet aggregation [5]; 1 hr): 0%
inhibition at 3 mg/kg (platelet aggregation [5]; 4 hr): 25.9%
inhibition at 10 mg/kg (platelet aggregation [5]; 1 hr): 0%
inhibition at 10 mg/kg (platelet aggregation [5]; 4 hr): 16.9%
